These results are taken from patent US10233198B2, “Pro-drugs of NSAIAs with very high skin and membranes penetration rates and their new medicinal uses” (Techfields Pharma Co., Ltd., priority 2007, dated 2019).

One series deals with Chinese White rabbits. The series can be described thus: Malassezia-induced psoriasis-like lesions. Format: in vivo. Conditions: 5% aqueous solution applied twice per day; 10 days after the application. The source says:
COX-1 and COX-2 play a very important role in animal immune-responses. NSAIAs inhibite COX-1 and COX-2. The pro-drugs of NSAIAs in this invention may be very useful for treating psoriasis, discoid lupus erythematosus, systemic lupus erythematosus (SLE), and other autoimmune diseases. Heavy suspensions of Malassezia [Rosenberg, E. W., et al., Mycopathologia, 72, 147-154 (1980)] were applied to the shaved skin on the backs of the Chinese white rabbits (n=4×6) twice (at 7 am and 7 pm) per day for 2 weeks, lesions similar to psoriasis resulted.

Series [1] has as its system SLAC:NOD-IDDM mice, type 1 diabetes. In words: Blood glucose in type 1 diabetic mice, transdermal. Format: in vivo. Conditions: no fasting; for Blood glucose, type I diabetic mice, Baseline: baseline of the treatment group; for Blood glucose, type I diabetic mice, Average: transdermal, equal to 20 mg/kg of NSAIAs once per day for 7 weeks, fourth to seventh week. The source says: The pro-drugs in this invention lower blood glucose levels in mouse models (SLAC:NOD-IDDM, type 1 diabetes, n=7). 20% acetone solution of diethylaminoethyl acetylsalicylate.acetylsalicylic acid salt (P-1, in acetone); 4-acetamidophenyl salicylyldimethylaminobutyrate.HCl (P-6), diethylaminoethyl 5-(2,4-difluorophenyl) acetylsalicylate.5-(2,4-difluorophenyl) acetylsalicylic acid salt (P-8), diethylaminoethyl salicylsalicylate.AcOH (P-9), diethylaminoethyl salicylate.AcOH (P-10), diethylaminoethyl 5-acetamido-acetylsalicylate (P-58), diethylaminoethyl acetylsalicylsalicylate. acetylsalicylsalicylic acid salt (P-59), diethylaminoethyl acetylsalicylsalicylate. acetylsalicylsalicylsalicylic acid salt (P-60) (equal to of 20 mg/kg of NSAIAs) were administered transdermally to the backs (about 1 cm^2) of mice (fur was shaved) once per day (at 8 am) for 7 weeks. The blood glucose levels were measured once every 3 days at 3 pm (no fasting) from the fourth week to the seventh week.

Series [2] has as its system SLAC/GK rats, type 2 diabetes. In words: Blood lipid levels in type 2 diabetic rats, oral with food. Format: in vivo. The conditions noted are these: for Triglycerides, Baseline: baseline of the treatment group. The text has this:
The pH of stomach juice is 1-3. The negative charge on the phosphate head group of membrane is neutralized by the proton and the positive charge on the amino groups of these pro-drugs cannot bond to the phosphate head group of membranes, then the pro-drugs cannot pass through the wall of the stomach and will not hurt or upset the stomach. The pH of the duodenum is about 5-7 and the pro-drugs can pass through the mucosa of duodenum. The pancreas is nearby and large amount of the pro-drugs will enter there before going to the liver, kidneys, and the general circulation where the drug will be metabolized, so only very low dose of these pro-drugs are needed and very few and low side effects will be caused. The 20% acetone solution of diethylaminoethyl acetylsalicylate.acetylsalicylic acid salt (P-1, in acetone); 4-acetamidophenyl salicylyldimethylaminobutyrate.HCl (P-6), diethylaminoethyl 5-(2,4-difluorophenyl) acetylsalicylate.5-(2,4-difluorophenyl) acetylsalicylic acid salt (P-8), diethylaminoethyl salicylsalicylate.AcOH (P-9), diethylaminoethyl salicylate.AcOH (P-10), diethylaminoethyl 5-acetamido-acetylsalicylate (P-58), diethylaminoethyl acetylsalicylsalicylate. acetylsalicylsalicylic acid salt (P-59), diethylaminoethyl acetylsalicylsalicylate. acetylsalicylsalicylsalicylic acid salt (P-60) (equal to of 15 mg/kg of NSAIAs) were mixed with food and were orally administered to the rats (SLAC/GK, type 2 diabetes, n=7) with food every day for 5 weeks. The blood glucose levels were measured once every 3 days at 3 pm (no fasting) from the second week to the fifth week. The blood lipid levels were measured at the end of the fifth week.

The test system of series [3] is SLAC/GK rats, type 2 diabetes. In words: Blood glucose in type 2 diabetic rats, transdermal. Format: in vivo. The conditions noted are these: no fasting; for Blood glucose, diabetic rats, Average: transdermal, equal to 20 mg/kg of NSAIAs once per day for 5 weeks, measured every 3 days, second to fifth week; for Blood glucose, diabetic rats, Baseline: baseline of the treatment group. The source says: (§1) The pro-drugs in this invention lower blood glucose levels in rat models (SLAC/GK, type 2 diabetes, n=7). 50% acetone solution of diethylaminoethyl acetylsalicylate.acetylsaficylic acid salt (P-1, in acetone); 4-acetamidophenyl salicylyldimethylaminobutyrate.HCl (P-6), diethylaminoethyl 5-(2,4-difluorophenyl) acetylsalicylate.5-(2,4-difluorophenyl) acetylsalicylic acid salt (P-8), diethylaminoethyl salicylsalicylate.AcOH (P-9), diethylaminoethyl salicylate.AcOH (P-10), diethylaminoethyl 5-acetamido-acetylsalicylate (P-58), diethylaminoethyl acetylsalicylsalicylate. acetylsalicylsalicylic acid salt (P-59), diethylaminoethyl acetylsalicylsalicylate. acetylsalicylsalicylsalicylic acid salt (P-60) (equal to of 20 mg/kg of NSAIAs) were administered transdermally to the backs (about 1.5 cm^2) of rats (fur was shaved) once per day (at 8 am) for 5 weeks. The blood glucose levels were measured once every 3 days at 4 pm (no fasting) from the second week to the fifth week. The blood lipid levels were measured at the end of the fifth week.

Series [4] relates to SLAC/GK rats, type 2 diabetes. In words: Blood lipid levels in type 2 diabetic rats, transdermal. Format: in vivo. Conditions: for Triglycerides, Baseline: baseline of the treatment group.
Description: as §1

The next series concerns normal rats. The series can be described thus: Blood glucose in normal rats, transdermal. Format: in vivo. The conditions noted are these: no fasting; for Blood glucose, normal rats, Baseline: baseline of the treatment group; for Blood glucose, normal rats, Average: transdermal, equal to 20 mg/kg of NSAIAs once per day for 5 weeks, second to fifth week.
Series [5] relates to human breast cancer cells (BCAP-37). In words: Anti-tumor activity, human breast cancer xenograft in nude mice, topical. Conditions: day 42; 30 μl of 5% (1.5 mg) topically every 8 hours; BCAP-37 xenograft; in g (unit assumed). On the procedure:
For evaluation of anti-tumor activity of the pro-drugs of NSAIAs, human breast cancer cells (BCAP-37, 2-3 mm^3 of tumor tissue was used in each mouse) were subcutaneously xenografted into nude mice (BALE, 12 groups, 7 mice each group). After 14 days, the tumors were growing to the size of 50±10 mm^3 (0.05 ml). Then 30 μl of 5% (equal to 1.5 mg of the pro-drugs) diethylaminoethyl acetylsalicylate.acetylsalicylic acid salt (P-1, in acetone); 1-piperidinepropyl 2[(2,6-dichlorophenyl)amino]benzene acetate.AcOH (P-2, in water), 1-pyrrolidinepropyl 2-(3-benzoylphenyl) propionate.AcOH (P-3, in water), 4-piperidinemethyl 2-(3-phenoxyphenyl)propionate.AcOH (P-4, in water), 3-piperidinemethyl 2-(ρ-isobutylphenyl) propionate.AcOH (P-5, in water), diethylaminoethyl 1-(p-chlorobenzoyl)-5-methoxy-2-methylindole 3-acetate.AcOH (P-11, in water), 2-(4-morpholinyl)ethyl (Z)-5-fluoro-2-methyl-1-[(4-methylsulfinyl) phenylmethylene]-1H-indene-3-acetate.AcOH (P-12, in water), diethylaminoethyl 2-(2,4-dichlorophenoxy)benzeneacetate.AcOH (P-19, in water), diethylaminoethyl 2-(8-methyl-10, 11-dihydro-11-oxodibenz(b,f)oxepin-2-yl)propionate.AcOH (P-37, in water), 1-pyrrolidinepropyl 2-[[(3-(trifluoromethyl)phenyl)amino]benzoate.AcOH (P-48, in water), 4-N,N-dimethylaminobutyryloxy-2-methyl-N-2-pyridinyl-2H,1,2-benzothiazine-3-carb oxamide 1,1-dioxide.HCl (P-51, in acetone) was topically applied to the human breast cancer cells-implanted area (near the front leg) every 8 hours.
On the technique in general: Xenograft models place foreign cells or tissue in a host animal.

Series [6] is described as follows: In vivo penetration through skin of intact rats; distribution in plasma and tissues. Conditions: 4 hours after 20% parent drug in 1 ml ethanol on about 5 cm^2 of rat back; blood, liver, kidney, brain.
Where [7] appears, read: end of fifth week, oral with food, equal to 15 mg/kg of NSAIAs every day.
[8] abbreviates: end of fifth week, transdermal, equal to 20 mg/kg of NSAIAs once per day.

In the case of `CC(=O)O.CC(C)Cc1ccc(C(C)C(=O)OCC2CCCNC2)cc1` (stereo not shown) [P-5, 3-piperidinemethyl 2-(ρ-isobutylphenyl) propionate.AcOH], in the series on Chinese White rabbits, the Psoriasis-like lesions result is reported as “the lesions were resolved”.
Turning to `CC(=O)O.CCN(CC)CCOC(=O)c1ccccc1OC(=O)c1ccccc1O` [P-9, diethylaminoethyl salicylsalicylate.AcOH], in series [1], the “Blood glucose, type I diabetic mice, Baseline” value was 26.5 ± 4 mmol/L and the “Blood glucose, type I diabetic mice, Average” value is 9.4 ± 1 mmol/L. The “Cholesterol (total), Average” value in series [2] (setting [7]) is given as 5.3 ± 0.4 mmol/L. Further, in series [3], the “Blood glucose, diabetic rats, Average” value was found to be 8.4 ± 1 mmol/L. Besides, the “Triglycerides, Baseline” value in series [4] came out at 5.7 ± 0.5 mmol/L. In addition, in series [4] (setting [8]), the “Triglycerides, Average” value is given as 2.6 ± 0.2 mmol/L. For the same molecule, in the series with normal rats, the “Blood glucose, normal rats, Baseline” value turned out to be 6.5 ± 1 mmol/L and the “Blood glucose, normal rats, Average” value was 6.7 ± 1 mmol/L.
For the molecule `CC(=O)O.CCN(CC)CCOC(=O)Cc1c(C)n(C(=O)c2ccc(Cl)cc2)c2ccc(OC)cc12` [P-11, diethylaminoethyl 1-(p-chlorobenzoyl)-5-methoxy-2-methylindole 3-acetate.AcOH], the “Weight of nude mice” value in series [5] is on record as 21 ± 2.
On to `CC(=O)O.CCN(CC)CCOC(=O)Cc1cc(C)c(C(=O)c2ccc(Cl)cc2)n1C` [P-14, diethylaminoethyl 5-(4-Chlorobenzoyl)-1,4-dimethyl-1H-pyrrole-2-acetate.AcOH], for which, in the series with Chinese White rabbits, the Psoriasis-like lesions entry was “the lesions were resolved”.
Same read-out and setting: under `CC(=O)O.CCc1cccc2c3c([nH]c12)C(CC)(CC(=O)OCCN(CC)CC)OCC3` (stereo not shown) [P-15, diethylaminoethyl 1,8-diethyl-1,3,4,9-tetrahydropyrano-[3,4-b]indole-1-acetate.AcOH] stands “the lesions were resolved”; under `CC(=O)O.CCN(CC)CCOC(=O)Cc1cccc(C(=O)c2ccc(Br)cc2)c1N` [P-17, diethylaminoethyl 2-amino-3-(4-bromo-benzoyl)benzeneacetate.AcOH], “the lesions were resolved”; under `C=CCOc1ccc(CC(=O)OCCN(CC)CC)cc1Cl.CC(=O)O` [P-18, diethylaminoethyl 3-chloro-4-(2-propenyloxy)benzeneacetate.AcOH], “the lesions were resolved”.
The same measure, in the same setting: in the case of `CC(=O)O.CCN(CC)CCOC(=O)COC(=O)Cc1c(C)n(C(=O)c2ccc(Cl)cc2)c2ccc(OC)cc12` [P-20] it was “the lesions were resolved”.
Regarding `CC(=O)O.CCN(CC)CCOC(=O)Cc1sc(-c2ccccc2)nc1-c1ccc(Cl)cc1` [P-21, diethylaminoethyl 4-(4-chlorophenyl)-2-phenyl-5-thiazoleacetate.AcOH], the Psoriasis-like lesions result in the series with Chinese White rabbits is on record as “the lesions were resolved”.
Regarding `CC(=O)O.CCN(CC)CCOC(=O)Cc1cn(-c2ccccc2)nc1-c1ccc(Cl)cc1` [P-22, diethylaminoethyl 3-(4-chlorophenyl)-1-phenyl-1H-pyrazole-4-acetate.AcOH], the Psoriasis-like lesions entry in the series on Chinese White rabbits is “the lesions were resolved”.
Take `CC(=O)O.O=C(OCCCN1CCCC1)c1ccccc1Nc1cccc(C(F)(F)F)c1` [P-48]: the “Weight of nude mice” value in series [5] came to 22 ± 3.
For `CCN(CC)CCOC(=O)c1cc(NC(C)=O)ccc1OC(C)=O` [P-58, diethylaminoethyl 5-acetamido-acetylsalicylate], in series [1], the “Blood glucose, type I diabetic mice, Baseline” value is reported as 27.1 ± 3 mmol/L and the “Blood glucose, type I diabetic mice, Average” value came to 7.9 ± 1 mmol/L. The “Triglycerides, Baseline” value in series [2] stood at 5.9 ± 0.5 mmol/L. Besides, in series [2] (setting [7]), the “Cholesterol (total), Average” value came to 4.9 ± 0.4 mmol/L and the “Triglycerides, Average” value turned out to be 2.8 ± 0.2 mmol/L. In addition, the “Blood glucose, diabetic rats, Baseline” value in series [3] was 17.1 ± 3 mmol/L. For the same molecule, the “Cholesterol (total), Average” value in series [4] (setting [8]) was 5.4 ± 0.4 mmol/L. Besides, the “Blood glucose, normal rats, Average” value in the series with normal rats worked out at 7.1 ± 1 mmol/L.
In the case of `CC(=O)Oc1ccccc1C(=O)Oc1ccccc1C(=O)Oc1ccccc1C(=O)O.CCN(CC)CCOC(=O)c1ccccc1OC(=O)c1ccccc1OC(C)=O` [P-60, diethylaminoethyl acetylsalicylsalicylate. acetylsalicylsalicylsalicylic acid salt], in series [1], the “Blood glucose, type I diabetic mice, Baseline” value is 25.5 ± 3 mmol/L and the “Blood glucose, type I diabetic mice, Average” value came out at 8.6 ± 1 mmol/L. Further, the “Triglycerides, Baseline” value in series [2] amounted to 6.2 ± 0.5 mmol/L. The “Cholesterol (total), Average” value in series [2] (setting [7]) is recorded as 5.0 ± 0.3 mmol/L. In series [3], the “Blood glucose, diabetic rats, Baseline” value worked out at 15.5 ± 3 mmol/L and the “Blood glucose, diabetic rats, Average” value is on record as 8.6 ± 1 mmol/L. Besides, in series [4], the “Triglycerides, Baseline” value is on record as 5.7 ± 0.6 mmol/L. The “Cholesterol (total), Average” value in series [4] (setting [8]) turned out to be 5.2 ± 0.3 mmol/L. Moreover, in the series with normal rats, the “Blood glucose, normal rats, Baseline” value came to 6.6 ± 1 mmol/L and the “Blood glucose, normal rats, Average” value came out at 7.5 ± 1 mmol/L.
`CC(C(=O)O)c1cccc(C(=O)c2ccccc2)c1` (stereo not shown) [ketoprofen, reference compound]: the “Drug found in rat tissues or plasma after topical application of the parent drug itself” value in series [6] is given as “None of these drugs was found”.
